This assay concerns M. mycetomatis genome strain MM55. Nature of the assay: CLSI M38-A2 based in vitro susceptibility screening (XTT or resazurin), growth at fixed concentration. Format: cell-based, Madurella mycetomatis. As to conditions: Madurella mycetomatis; for Percent fungal survival at 100 µM: replicate 2, M. mycetomatis MM55, read-out: Percentage survival at 100um, 100 uM A (second replicate column). (Tetrazolium dyes change colour on reduction, which living cells bring about.)

Where [1] appears, read: 25 uM, replicate A, MM55, read-out: Percentage survival at 25um, 25 um A.
Where [2] appears, read: mean of replicates, MM55, read-out: Percentage survival at 100um, 100 uM mean.
[3] abbreviates: replicate 1, MM55, read-out: Percentage survival at 100um, 100 uM A.
The mark [4] stands for this setting: replicate 2, MM55, read-out: Percentage survival at 100um, 100 uM A.
Where [5] appears, read: replicate 3, MM55, read-out: Percentage survival at 100um, 100 uM A.
The mark [6] stands for this setting: 25 uM, mean of three, M. mycetomatis MM55, read-out: Percentage survival at 25um, 25 uM mean.
Where [7] appears, read: 25 uM, replicate A, M. mycetomatis MM55, read-out: Percentage survival at 25um, 25 um A.
Setting [8] is: 25 uM, replicate B, M. mycetomatis MM55, read-out: Percentage survival at 25um, 25 uM B.
Setting [9] is: 25 uM, replicate C, M. mycetomatis MM55, read-out: Percentage survival at 25um, 25 uM C.
Setting [10] is: mean of three, M. mycetomatis MM55, read-out: Percentage survival at 100um, 100 uM mean.
[11] abbreviates: replicate 1, M. mycetomatis MM55, read-out: Percentage survival at 100um, 100 uM A (first replicate column).
Setting [12] is: replicate 3, M. mycetomatis MM55, read-out: Percentage survival at 100um, 100 uM A (third replicate column).
The mark [13] stands for this setting: 25 uM, mean of three replicates, read-out: Percentage survival at 25um, 25 uM mean.
The mark [14] stands for this setting: 25 uM, replicate A, read-out: Percentage survival at 25um, 25 um A.
The mark [15] stands for this setting: 25 uM, replicate B, read-out: Percentage survival at 25um, 25 uM B.
Setting [16] is: 25 uM, replicate C, read-out: Percentage survival at 25um, 25 uM C.
Where [17] appears, read: first replicate column, read-out: Percentage survival at 100um, 100 uM A.
Setting [18] is: mean of three replicates, read-out: Percentage survival at 100um, 100 uM mean.
Where [19] appears, read: second replicate column, read-out: Percentage survival at 100um, 100 uM A.
Where [20] appears, read: third replicate column, read-out: Percentage survival at 100um, 100 uM A.
Setting [21] is: 25 uM, mean of replicates, read-out: Percentage survival at 25um, 25 uM mean.
Setting [22] is: mean of replicates, read-out: Percentage survival at 100um, 100 uM mean.
Where [23] appears, read: replicate 1, read-out: Percentage survival at 100um, 100 uM A.
[24] abbreviates: replicate 2, read-out: Percentage survival at 100um, 100 uM A.
[25] abbreviates: replicate 3, read-out: Percentage survival at 100um, 100 uM A.
Setting [26] is: read-out: Percentage survival at 25um, 25 uM B.
Where [27] appears, read: read-out: Percentage survival at 25um, 25 uM C.
Where [28] appears, read: read-out: Percentage survival at 25um, 25 uM mean.

Like-named read-outs stand apart in the source and are kept apart here.

Regarding `O=C(O)c1cc(-c2ccc(Br)cc2)nc2ccc(Cl)cc12` [MMV247764], the activity at 25 µM by setting is: (25 uM, mean of replicates, MM55, read-out: Percentage survival at 25um, 25 uM mean) 73.4%; under setting [1], 82.6%; (25 uM, replicate B, MM55, read-out: Percentage survival at 25um, 25 uM B) 78.8%; (25 uM, replicate C, MM55, read-out: Percentage survival at 25um, 25 uM C) 58.9%. In addition, the activity at 100 µM reads like this: under setting [2], 54.4%; under setting [3], 60.9%; under setting [4], 52.4%; under setting [5], 49.8%.
As to `Fc1ccc(-c2nc(-c3c[nH]c4ccc(Br)cc34)[nH]c2-c2ccc(F)cc2)cc1` [MMV1593537], the Percent fungal survival at 100 µM came to 1.82%. Further, the activity at 25 µM under setting [6] came to 61.4%. Moreover, the activity at 25 µM under setting [7] came out at 38%. Also, the activity at 25 µM under setting [8] was found to be 20.2%. Also, under setting [9], the activity at 25 µM turned out to be 126%. Further, under setting [10], the activity at 100 µM turned out to be 3.84%. Moreover, the activity at 100 µM under setting [11] worked out at 4.18%. Further, the activity at 100 µM under setting [12] stood at 5.52%.
Regarding `O=C(CCCC(F)(F)F)N1CCC(c2nc(-c3nccs3)no2)CC1` [MMV1582491], the Percent fungal survival at 100 µM stood at 67%. The activity at 25 µM under setting [6] was 73.3%. For the same compound, under setting [7], the activity at 25 µM was 68.8%. The activity at 25 µM under setting [8] came to 80.7%. Moreover, the activity at 25 µM under setting [9] worked out at 70.4%. For the same compound, the activity at 100 µM under setting [10] amounted to 72.9%. The activity at 100 µM under setting [11] was 57%. Moreover, under setting [12], the activity at 100 µM is 94.8%.
With `Cc1ccc(C)c(OCCCCCCN2C[C@H](O)[C@@H](O)[C@H](O)[C@H]2CO)c1` [MMV1634401], the activity at 25 µM under setting [13] is 82.7%, the activity at 25 µM under setting [14] was found to be 64.4%, the activity at 25 µM under setting [15] is 87.6% and the activity at 25 µM under setting [16] came out at 96.1%. Further, the activity at 100 µM was determined as 83.4% under setting [17], 82.2% under setting [18], 82.8% under setting [19] and 80.5% under setting [20].
`Cc1c(N)cccc1Cn1ccc(OCCc2cccs2)cc1=O` [MMV1578557]: the Percent fungal survival at 100 µM is 81.9%. Besides, the activity at 25 µM under setting [6] was 79.8%. Also, under setting [7], the activity at 25 µM came out at 82.2%. Under setting [8], the activity at 25 µM worked out at 84.5%. Moreover, under setting [9], the activity at 25 µM is 72.6%. The activity at 100 µM under setting [10] came out at 78.3%. The activity at 100 µM under setting [11] was 73%. In addition, under setting [12], the activity at 100 µM stood at 80%.
`O=S(=O)(Nc1ccccc1)c1ccc(NC(=S)Nc2ccccc2)cc1` [MMV1578562]: the activity at 25 µM under setting [21] amounted to 90%, the activity at 25 µM under setting [14] is 93.2%, the activity at 25 µM under setting [15] stood at 90.8% and the activity at 25 µM under setting [16] stood at 86.1%. For the same compound, the activity at 100 µM by setting is: under setting [22], 86%; under setting [23], 96.1%; under setting [24], 79.6%; under setting [25], 82.2%.
As for `O=C(N[C@H](CCS)C(=O)N[C@H](Cc1ccccc1)C(=O)O)c1cc2ccccc2[nH]1` [MMV1581557], the activity at 25 µM is, setting by setting: under setting [21], 85.4%; under setting [14], 88.1%; under setting [15], 98.1%; under setting [16], 70%. The activity at 100 µM is, setting by setting: under setting [22], 83.1%; under setting [23], 82.1%; under setting [24], 85.3%; under setting [25], 81.8%.
`Nc1nc(O)c2ncn(COC(CO)CO)c2n1` [MMV001761]: the activity at 25 µM under setting [13] came to 69.6%, the activity at 25 µM under setting [14] was 86.2%, the activity at 25 µM under setting [15] was found to be 64.3% and the activity at 25 µM under setting [16] turned out to be 58.4%. The activity at 100 µM under setting [17] came out at 93.4%, the activity at 100 µM under setting [18] was 87%, the activity at 100 µM under setting [19] amounted to 85.2% and the activity at 100 µM under setting [20] was determined as 82.5%.
Regarding `COc1cc(Cc2cc(N)nc(N)n2)cc(OC)c1OC` [MMV1579846], the activity at 25 µM stood at 80.9% under setting [21], 87.9% under setting [14], 75.2% under setting [15] and 79.5% under setting [16]. Also, the activity at 100 µM reads like this: under setting [22], 95.4%; under setting [23], 83.5%; under setting [24], 94.2%; under setting [25], 108%.
In the case of `O=[N+]([O-])c1cn(Cc2nc(O)nc(O)c2Br)cn1` [MMV1579777], the activity at 25 µM is, setting by setting: under setting [21], 94.1%; under setting [14], 98.9%; under setting [15], 96.8%; under setting [16], 86.6%. In addition, the activity at 100 µM was determined as 87.1% under setting [22], 96.7% under setting [23], 83.9% under setting [24] and 80.7% under setting [25].
Turning to `CCc1c(OCC2CCC2)c2cc(F)ccc2[nH]c1=O` [MMV1634395], the activity at 25 µM reads like this: under setting [13], 67.1%; under setting [14], 59.4%; under setting [15], 71.5%; under setting [16], 70.4%. Also, the activity at 100 µM was determined as 62.9% under setting [17], 55.6% under setting [18], 45.1% under setting [19] and 58.8% under setting [20].
Consider `CN(Cc1ccc(C(C)(C)C)cc1)Cc1cccc2ccccc12` [MMV637104], for which the activity at 25 µM is 40.9% (25 uM, mean, read-out: Percentage survival at 25um, 25 uM mean); 58.2% under setting [14]; -0.523% under setting [15]; 64.9% under setting [16]. Also, the activity at 100 µM is, setting by setting: (mean, read-out: Percentage survival at 100um, 100 uM mean) 61.2%; (replicate (first column), read-out: Percentage survival at 100um, 100 uM A) 61.4%; (replicate (second column), read-out: Percentage survival at 100um, 100 uM A) 65.7%; (replicate (third column), read-out: Percentage survival at 100um, 100 uM A) 56.6%.
On to `CC[C@@]1(O)C(=O)OCc2c1cc1n(c2=O)Cc2cc3c([N+](=O)[O-])cccc3nc2-1` [MMV1580796], for which the activity at 25 µM runs as follows: under setting [1], 95.3%; under setting [26], 102%; under setting [27], 81.7%; under setting [28], 93.1%. Further, the activity at 100 µM by setting is: under setting [2], 86.8%; under setting [3], 97.1%; under setting [4], 84.7%; under setting [5], 78.6%.
`O=C(Nc1ccccc1C(=O)O)c1cccc(Oc2ccccc2)c1` [MMV1579784]: the Percent fungal survival at 100 µM worked out at 112%. For the same compound, under setting [6], the activity at 25 µM was determined as 90.7%. The activity at 25 µM under setting [7] amounted to 75.3%. The activity at 25 µM under setting [8] is 85.5%. Under setting [9], the activity at 25 µM stood at 111%. Also, the activity at 100 µM under setting [10] was determined as 90.8%. The activity at 100 µM under setting [11] came to 88.1%. For the same compound, the activity at 100 µM under setting [12] came out at 72.2%.
For `CC(=N)N1CC[C@H](SC2=C(C(=O)O)N3C(=O)[C@@H]([C@@H](C)O)[C@H]3C2)C1` [MMV1582382], the activity at 25 µM runs as follows: under setting [21], 78.4%; under setting [14], 77.3%; under setting [15], 85.2%; under setting [16], 72.8%. Also, the activity at 100 µM was determined as 83.2% under setting [22], 76.4% under setting [23], 82.9% under setting [24] and 90.3% under setting [25].
For `NC1(C(=O)O)CCP(=O)(O)CC1` (centres unmarked) [MMV1593538], the activity at 25 µM stood at 56.1% under setting [14], 68.9% under setting [26], 67% under setting [27] and 64% under setting [28]. Also, the activity at 100 µM under setting [22] stood at 65.8%, the activity at 100 µM under setting [23] worked out at 72.6%, the activity at 100 µM under setting [24] was 66.4% and the activity at 100 µM under setting [25] is 58.5%.
